From PMC7504360 (International Journal of Molecular Sciences, 2020)
Square brackets hold non-standard residues; d marks the D form. Peptide text beside a SMILES is read from it.

Legend:
E. coli K1-infected mice = test: E. coli K1 septic shock mouse model; type: in vivo
Description: For sepsis model, we used E. coli K1 as an infection strain [47], and mice were randomly sorted in to 6 groups (5 mice/group). Control mice received I.P. injection of phosphate buffered saline (PBS, pH = 7.4) whereas Pro10-1 and Pro10-1D were injected with 1 mg/Kg and served as a peptide control. Mice infected with E. coli K1 (6 × 10^6 CFU/mouse, I.P.) served as a sepsis control. For treatment measures, mice were pretreated with 1 mg/kg of the respective peptides for 1 h and then infected with E. coli K1 like the septic mice. After 16 h, mice were euthanized by cervical dislocation under overdose of ether anesthesia. The blood samples, lung, liver, and kidney tissues were excised and processed for biochemical and histological analysis. Briefly, organ lysates of lung, liver, and kidney harvested from ice-cold PBS were evaluated for number of bacterial colonies. Endotoxin levels in the serum contents were quantified according to the kit protocol using Pierce LAL Chromogenic Endotoxin Quantitation Kit (Thermo Fisher Scientific, MA, USA). The levels of AST, ALT, and BUN in serum and the inflammatory cytokine levels in the serum or lung lysates were quantified as described previously.
Lung tissues of the control and an experimental group of mice fixed by paraformaldehyde (4% v/v) were evaluated for histological changes. Briefly, […] lung tissue sections were deparaffinized in xylene, rehydrated with graded ethanol, and then stained with H&E stain. The stained section was examined for neutrophil infiltration and other morbid changes with a light microscope (Eclipse Ni; Nikon, Tokyo, Japan).

MAPK and NF-κB = test: Immunoblot of MAPK (JNK, ERK) phosphorylation and NF-κB nuclear translocation; type: cell-based, mouse; conditions: 20 μM peptide, LPS 50 ng/mL, RAW264.7 cells
Description: The protein content of all experimental groups of RAW264.7 cells in triplicate were extracted using radio immunoprecipitation buffer (RIPA) containing protease phosphatase inhibitor. The supernatant was collected by centrifugation (12,000× g) at 4 °C for 20 min and stored at −80 °C until further use. Similarly, cytoplasmic and nuclear fractionation was extracted using an NE-PER Nuclear and Cytoplasmic Extraction Reagents kit (ThermoFisher Scientific, MA, USA), according to the manufacturer’s protocol. Protein contents were quantified using a bicinchoninic acid (BCA) protein assay kit (Thermo Fisher Scientific Inc., MA, USA) and 30 μg (v/v) was electrophoresed by SDS-PAGE using a 10% (w/v) polyacrylamide resolving gel, electro-transferred to a PVDF membrane, and then blocked using 5% (w/v) non-fat milk. The membranes were incubated with primary antibodies (1:1000 dilution) at 4 °C overnight, followed by incubation with their respective secondary antibody for 1 h at room temperature. The antigen-antibody complexes were examined using the WestGlow^TM Chemiluminescent Substrate (Biomax Co., Ltd, Seoul, South Korea) under iBright™ CL1000 Imaging System (Thermo Fisher Scientific Inc., MA, USA). The densitometric analysis of protein signals were quantified using the Image J software (Version 1.52, National Institutes of Health, MD, USA).

all bacterial strains = test: Mean MIC over all bacterial strains (GM); type: cell-based; conditions: mean MIC of all bacterial strains of Table 2
Description: Briefly, the microplates were inoculated with two-fold serial dilutions of each peptides in Mueller–Hinton (MH) media and then seeded with log-phase culture of aforementioned bacterial suspensions (2 × 10^5 CFU/mL). The microplates were incubated for 16 h at 37 °C, and absorbance was read at 600 nm using microplate reader SpectraMAX (Molecular Devices, San Jose, CA, USA).

[1] = tested on: LPS-stimulated RAW264.7 cells; test: TNF-α release, ELISA; type: cell-based, mouse; conditions: 25 μM, 1 h pretreatment, LPS 20 ng/mL for 16 h
Description: (§1) The presence of nitrite in culture media strongly validates the indication of NO production which was assessed by Griess assay. Briefly, RAW264.7 cell (1 × 10^5) were seeded in s 96-well plate in triplicate. Peptides (1, 5, 25, and 50 μM) were pretreated 1 h and then stimulated with 20 ng/mL of LPS purified from E. coli O111:B4 (Sigma-Aldrich, St. Louis, MO, USA) for 16 h. After incubation, equal volumes of culture media and Griess reagent were added and color change was read at 540 nm. The concentration of nitrite content was assessed using a standard curve of sodium nitrite. In addition, release of inflammatory cytokines including TNF-α and IL-6 in the culture media was quantified using an enzyme-linked immunosorbent assays kit (ELISA; R&D Systems, Minneapolis, MN, USA) and the assay was performed according to the kit protocol. The assay was conducted in triplicate, and the concentrations of TNF-α and IL-6 were evaluated by measuring the absorbance at 450 nm using a microplate reader.

[2] = tested on: LPS-stimulated RAW264.7 cells; test: IL-6 release, ELISA; type: cell-based, mouse; conditions: 25 μM, 1 h pretreatment, LPS 20 ng/mL for 16 h
Description: as §1

[3] = LPS neutralization, limulus amebocyte lysate (LAL) assay; type: biochemical, Escherichia coli O111:B4; conditions: 50 μM peptide, 20 ng/mL LPS, 30 min at 37 °C, LAL chromogenic kit, 405 nm; triplicate
Description: The LPS-neutralizing activity of all peptides was determined using the Pierce LAL chromogenic endotoxin quantitation kit (ThermoFisher Scientific, MA, USA). All peptides including standard (Polymixin B) at varying concentrations (3.12, 6.25, 12.5, 25, and 50 μM in endotoxin-free water) were allowed to bind with 20 ng/mL of LPS in a 96-well plate for 30 min at 37 °C. To this, an equal volume (10 μL) of LAL reagent was added and incubated for 10 min at 37 °C and then 20μL of LAL chromogenic substrate was added. After 15 min incubation at 37 °C, the reaction was stopped by 25% acetic acid and the reduction in yellow color formation due to the substrate was measured at 405 nm on an absorbance microplate reader. The experiment was conducted in triplicate, and the changes in absorbance due to peptide-LPS interaction are indicated as percent LPS neutralization.

[4] = 1 mg/kg I.P. 1 h before E. coli K1 6 × 10^6 CFU/mouse I.P., 16 h, 5 mice/group
[5] = 1 mg/kg I.P. pretreatment, septic mice, ELISA
[6] = 1 mg/kg I.P. pretreatment, E. coli K1-infected mice = 100%

SMILES: CC[C@@H](C)[C@@H](NC(=O)[C@@H](C)NC(=O)[C@@H](CC(C)C)NC(=O)[C@@H](Cc1c[nH]c2ccccc12)NC(=O)[C@@H](CC(C)C)NC(=O)[C@@H](CCCNC(=N)N)NC(=O)[C@H](N)CCCNC(=N)N)C(=O)N[C@H](Cc1c[nH]c2ccccc12)C(=O)N[C@H](CCCNC(=N)N)C(=O)N[C@H](CCCNC(=N)N)C(N)=O [Pro10-1D] (H-[dR][dR][dL][dW][dL][dA][dI][dW][dR][dR]-NH2; N-terminus assumed)
- reduction of the number of bacteria in kidney (E. coli K1-infected mice; [4]): ~71%
- reduction of the number of bacteria in liver (E. coli K1-infected mice; [4]): ~87%
- reduction of the number of bacteria in lung (E. coli K1-infected mice; [4]): approximately 73%
- lung pathological changes (PMN infiltration), H&E histology (E. coli K1-infected mice; 1 mg/kg I.P. pretreatment, E. coli K1-infected mice): effectively alleviated the pathological changes
- suppression of IL-6 level in lung tissue (E. coli K1-infected mice; [5]): 62%
- suppression of IL-6 level in serum (E. coli K1-infected mice; [5]): 56%
- suppression of TNF-α level in lung tissue (E. coli K1-infected mice; [5]): 51%
- suppression of TNF-α level in serum (E. coli K1-infected mice; [5]): 45%
- reduction of serum endotoxin levels (LAL test) (E. coli K1-infected mice; [6]): over 33%
- serum ALT level reduced to (E. coli K1-infected mice; [6]): 48%
- serum AST level reduced to (E. coli K1-infected mice; [6]): 26%
- serum BUN level reduced to (E. coli K1-infected mice; [6]): 37%
- MAPK and NF-κB proteins (MAPK and NF-κB): downregulated
- GM (geometric mean of MIC values of all bacterial strains) (all bacterial strains): 4.86 µM
- inhibition of LPS-induced TNF-α level [1]: effective inhibition
- inhibition of LPS-induced IL-6 level [2]: effective inhibition
- inhibition of the activation of LPS (LPS neutralization) [3]: 58.45%
